Experimental findings from US7906520B2, “Methods for treating pain” (The General Hospital Corporation, priority 2003, dated 2011) are described below.

Series [1] relates to formalin injection into the hindpaw. The experiment in a line: Formalin test: flinching behavior and cFos immunoreactivity in dorsal horn. The series is classed as in vivo, rat. The protocol: DAHP (180 mg/kg) was injected i.p. one hour before injection of formalin into the hindpaw. Flinches were counted for one hour starting right after formalin injection. FIG. 24A is a series of photo micrographs showing cFos immunoreactivity in ipsilateral dorsal horn neurons two hours after formalin injection in DAHP and vehicle-treated rats. FIG. 24B is a bar graph quantifying the number of cFos immunoreactive cell bodies observed under each condition.

The test system of a further series is naïve rats. The experiment in a line: Response to tactile and heat stimuli in naïve rats. The series is classed as in vivo, rat. The conditions noted are these: non-injured animals. The protocol:
FIGS. 13A and 13B are a series of graphs showing the effects of DAHP on the response to tactile (13A) and heat stimuli (13B) in naïve rats. A single dose of DAHP (180 mg/kg i.p.) or vehicle was injected at time “zero”.
Hypersensitivity was induced using the CFA model of paw inflammation. In these experiments, BH4 was injected at time “zero” after measurement of baseline paw withdrawal latency.

Series [2] in a line: DAHP pharmacokinetics in plasma and CSF. The series is classed as in vivo, rat. The conditions noted are these: single dose 180 mg/kg i.p. The protocol:
FIGS. 14A-14C represent a series of graphs showing pharmacokinetic features of DAHP and the pharmacokinetic-pharmacodynamic relationship. […] In addition, concentrations of DAHP in cerebrospinal fluid (CSF) were determined at an early and late time point. In FIG. 14B, plasma concentrations were fitted according to a one-compartment PK model with first order input and first order elimination. PK parameters are presented where Cmax is the maximum concentration, tmax the time of the maximum concentration, k01 is the absorption rate constant, t1/2abs. represents the absorption half-life, k10 is the elimination rate constant, t1/2 el is the elimination half-life, and Cl is the clearance. In FIG. 14C, pooled plasma concentration and effect data of the CFA model were used to assess the PK/PD relationship employing a standard sigmoidal Emax model.

Series [3] has as its system SNI model, nNOS knockout mice. Put plainly: SNI model in nNOS knockout and wild-type mice. The series is classed as in vivo. The settings on record: mechanical or cold stimuli. The protocol: In this figure, closed circles represent nNOS knockout mice with DAHP; open circles, nNOS knock out mice with vehicle; closed triangles, wild type mice with DAHP; and open triangles, wild type mice with vehicle. […] In this figure, closed triangles represent L-NAME administration; open circles, L-NAME+DAHP administration; closed circles, DAHP administration; and open triangles, vehicle administration. L-NAME was administered at 25 mg/kg, i.p., single dose, and DAHP was administered at 120 mg/kg, i.p., single dose. The antinociceptive efficacy of this high L-NAME dose is weaker (about 50%) than that of a moderate dose of DAHP.

The next series has as its system BH4 biosynthesis. Put plainly: Tissue biopterin and neopterin levels after SNI (LC-MS/MS). In kind it is in vivo. The conditions noted are these: with DAHP administration. Here is the method:
FIG. 30 is a series of bar graphs quantifying the levels of the BH4 metabolites biopterin and neopterin in the DH, DRG, and ScN following SNI surgery with and without DAHP treatment, compared to control.
Using the preferred method, tissue neopterin and biopterin levels were determined with a liquid chromatography tandem mass spectrometry method. After acidic pH oxidation with iodine according to Fukushima and Nixon (Methods Enzymol. 66: 429-436, 1980) tissues were extracted by solid phase extraction employing Oasis MCX extraction cartridges and concentrations of total biopterin, neopterin and the internal standard rhamnopterin were determined by liquid chromatography coupled to tandem mass spectrometry. HPLC analysis was done under gradient conditions using a Nucleosil C8 column. MS/MS analyses were performed on an API 4000 Q TRAP triple quadrupole mass spectrometer with a Turbo Ion Spray source. Precursor-to-product ion transitions of m/z 236 192 for biopterin, m/z 252 192 for neopterin, m/z 265 192 for rhamnopterin were used for the MRM. Concentrations of the calibration standards, quality controls and samples were evaluated by Analyst software 1.4 (Applied Biosystems). Linearity of the calibration curve was proven from 0.1-50 ng/ml. The coefficient of correlation for all measured sequences was at least 0.99. The intra-day and inter-day variability was <10%.

For a further series, the system named is dorsal horn neurons. The experiment in a line: TUNEL staining of apoptotic profiles in L4/L5 dorsal horn after SNI. In kind it is in vivo. The conditions noted are these: DAHP 180 mg/kg/day i.p., 7 days after SNI. Here is the method: FIG. 25 is a bar graph showing the number of apoptotic cell profiles, using TUNEL staining, observed in the L4/L5 dorsal horn 7 days after SNI surgery of animals treated with either 180 mg/kg/day DAHP or vehicle control. Apoptotic neurons were detected by in situ TUNEL labeling and counted by a blinded observer.

A further series concerns GTPCH-1 expression. Put plainly: GTPCH-I in situ hybridization in DRG after SNI. The series is classed as in vivo. The settings on record: 14 days after SNI surgery, DAHP vs vehicle. The source says: FIG. 27A is a series of photomicrographs of in situ hybridization of GTPCH-I in the ipsilateral (lesioned) and contralateral (control) dorsal root ganglia 3 days (top panel) and 14 days (bottom panel) after SNI surgery. FIG. 27B is a series of photomicrographs of GTPCH-I in situ hybridization 14 days after SNI surgery and treatment with either DAHP or vehicle control.

Molecules are shown by their SMILES.

As to `Nc1cc(O)nc(N)n1` [DAHP, 2,4-Diamino-6-hydroxypyrimidine], in series [1] (single i.p. dose of 180 mg/kg), the “flinching behavior in the formalin assay” value is “reduced the flinching behavior”. Moreover, the “c-FOS immunoreactivity in ipsilateral dorsal horn neurons” value in series [1] (two hours after formalin, intraperitoneal DAHP, p<0.05) is given as “significantly reduced elevation”. Moreover, in the series on naïve rats (DAHP 180 mg/kg i.p. single dose), the “motor activity, von Frey and Hargreaves tests” value was “did not result in a difference in motor activity”. Moreover, the “sedation, general level of activity” value with naïve rats (DAHP) is reported as “no obvious signs of sedation”. Moreover, in series [2], the “distribution in cerebrospinal fluid” value is given as “rapid distribution in the cerebrospinal fluid” and the “plasma concentration after i.p. injection” value is “rapidly increased”. Also, in series [3], the “anti-nociceptive effects in nNOS knockout vs wild-type mice” value was “do not differ between nNOS knockout mice and wild-type mice”. Moreover, in the series on BH4 biosynthesis (DH, DRG, ScN), the “biopterin increases after SNI” value was “reversed in the DH and the ScN, but not the DRG”. Moreover, the “neopterin increases after SNI” value in the series with BH4 biosynthesis (DRG and ScN) is “reversed”. For the same compound, the “apoptosis of dorsal horn neurons (TUNEL)” value in the series on dorsal horn neurons is listed as “protects dorsal horn neurons from apoptosis”. For the same compound, the “GTPCH-1 expression in DRG” value with GTPCH-1 expression was “does not affect GTPCH-1 expression”.
